Experimental data taken from the NIST ThermoML archive (doi:10.1016/j.fluid.2014.09.014).
Numbers after ± are expanded uncertainties.

Assay: refractive index (other wavelength) (dimensionless); xn = mol fraction of the nth substance listed
Conditions: 308.15 K, 101 kPa, Liquid, Standard Abbe refractometry

## CC(C)OC(C)C [diisopropyl ether] + CO
Wavelength=40.47 nm, x2 = 0.0822
  refractive index: 1.37037 ± 0.00042
Wavelength=40.47 nm, x2 = 0.1171
  refractive index: 1.37018 ± 0.00041
Wavelength=40.47 nm, x2 = 0.1271
  refractive index: 1.37021 ± 0.00041
Wavelength=40.47 nm, x2 = 0.1827
  refractive index: 1.36993 ± 0.0004
Wavelength=40.47 nm, x2 = 0.2162
  refractive index: 1.36973 ± 0.0004
Wavelength=40.47 nm, x2 = 0.251
  refractive index: 1.36934 ± 0.0004
Wavelength=40.47 nm, x2 = 0.3298
  refractive index: 1.36925 ± 0.00038
Wavelength=40.47 nm, x2 = 0.3577
  refractive index: 1.36902 ± 0.00038
Wavelength=40.47 nm, x2 = 0.4497
  refractive index: 1.36699 ± 0.00037
Wavelength=40.47 nm, x2 = 0.4525
  refractive index: 1.36743 ± 0.00037
Wavelength=40.47 nm, x2 = 0.522
  refractive index: 1.36511 ± 0.00035
Wavelength=40.47 nm, x2 = 0.5543
  refractive index: 1.36433 ± 0.00035
Wavelength=40.47 nm, x2 = 0.609
  refractive index: 1.36183 ± 0.00034
Wavelength=40.47 nm, x2 = 0.6529
  refractive index: 1.36027 ± 0.00034
Wavelength=40.47 nm, x2 = 0.7504
  refractive index: 1.35626 ± 0.00033
Wavelength=40.47 nm, x2 = 0.804
  refractive index: 1.35193 ± 0.00033
Wavelength=40.47 nm, x2 = 0.807
  refractive index: 1.3517 ± 0.00033
Wavelength=40.47 nm, x2 = 0.8727
  refractive index: 1.34787 ± 0.00032
Wavelength=40.47 nm, x2 = 0.9233
  refractive index: 1.33956 ± 0.00033
Wavelength=40.47 nm, x2 = 0.9253
  refractive index: 1.34157 ± 0.00033
Wavelength=40.47 nm, x2 = 0.9527
  refractive index: 1.33839 ± 0.00032
Wavelength=40.47 nm, x2 = 0.9773
  refractive index: 1.33485 ± 0.00032
Wavelength=40.47 nm, x2 = 0.989
  refractive index: 1.33356 ± 0.00032
Wavelength=40.47 nm, x2 = 0.9964
  refractive index: 1.33249 ± 0.00032
Wavelength=435.8 nm, x2 = 0
  refractive index: 1.36739 ± 0.00044
Wavelength=435.8 nm, x2 = 0.0424
  refractive index: 1.36729 ± 0.00043
Wavelength=435.8 nm, x2 = 0.082
  refractive index: 1.36727 ± 0.00042
Wavelength=435.8 nm, x2 = 0.0822
  refractive index: 1.36742 ± 0.00042
Wavelength=435.8 nm, x2 = 0.1171
  refractive index: 1.36725 ± 0.00041
Wavelength=435.8 nm, x2 = 0.1271
  refractive index: 1.36728 ± 0.00041
Wavelength=435.8 nm, x2 = 0.1827
  refractive index: 1.367 ± 0.0004
Wavelength=435.8 nm, x2 = 0.2162
  refractive index: 1.36681 ± 0.0004
Wavelength=435.8 nm, x2 = 0.251
  refractive index: 1.36642 ± 0.00039
Wavelength=435.8 nm, x2 = 0.3298
  refractive index: 1.36633 ± 0.00038
Wavelength=435.8 nm, x2 = 0.3577
  refractive index: 1.36611 ± 0.00038
Wavelength=435.8 nm, x2 = 0.4497
  refractive index: 1.36412 ± 0.00037
Wavelength=435.8 nm, x2 = 0.4525
  refractive index: 1.36455 ± 0.00037
Wavelength=435.8 nm, x2 = 0.522
  refractive index: 1.3623 ± 0.00035
Wavelength=435.8 nm, x2 = 0.5543
  refractive index: 1.36152 ± 0.00035
Wavelength=435.8 nm, x2 = 0.609
  refractive index: 1.35906 ± 0.00034
Wavelength=435.8 nm, x2 = 0.6529
  refractive index: 1.35752 ± 0.00034
Wavelength=435.8 nm, x2 = 0.7504
  refractive index: 1.35356 ± 0.00033
Wavelength=435.8 nm, x2 = 0.804
  refractive index: 1.34931 ± 0.00033
Wavelength=435.8 nm, x2 = 0.807
  refractive index: 1.34907 ± 0.00033
Wavelength=435.8 nm, x2 = 0.8727
  refractive index: 1.3453 ± 0.00032
Wavelength=435.8 nm, x2 = 0.9233
  refractive index: 1.33712 ± 0.00033
Wavelength=435.8 nm, x2 = 0.9253
  refractive index: 1.33909 ± 0.00033
Wavelength=435.8 nm, x2 = 0.9527
  refractive index: 1.33598 ± 0.00032
Wavelength=435.8 nm, x2 = 0.9773
  refractive index: 1.3325 ± 0.00032
Wavelength=435.8 nm, x2 = 0.989
  refractive index: 1.33124 ± 0.00032
Wavelength=435.8 nm, x2 = 0.9964
  refractive index: 1.33018 ± 0.00032
Wavelength=486.1 nm, x2 = 0
  refractive index: 1.36407 ± 0.00044
Wavelength=486.1 nm, x2 = 0.0423
  refractive index: 1.36395 ± 0.00043
Wavelength=486.1 nm, x2 = 0.0424
  refractive index: 1.36404 ± 0.00043
Wavelength=486.1 nm, x2 = 0.082
  refractive index: 1.36394 ± 0.00042
Wavelength=486.1 nm, x2 = 0.0822
  refractive index: 1.36409 ± 0.00042
Wavelength=486.1 nm, x2 = 0.1171
  refractive index: 1.36394 ± 0.00041
Wavelength=486.1 nm, x2 = 0.1271
  refractive index: 1.36394 ± 0.00041
Wavelength=486.1 nm, x2 = 0.1827
  refractive index: 1.36368 ± 0.0004
Wavelength=486.1 nm, x2 = 0.2162
  refractive index: 1.36351 ± 0.0004
Wavelength=486.1 nm, x2 = 0.251
  refractive index: 1.36312 ± 0.00039
Wavelength=486.1 nm, x2 = 0.3298
  refractive index: 1.36304 ± 0.00038
Wavelength=486.1 nm, x2 = 0.3577
  refractive index: 1.36275 ± 0.00038
Wavelength=486.1 nm, x2 = 0.4497
  refractive index: 1.36085 ± 0.00037
Wavelength=486.1 nm, x2 = 0.4525
  refractive index: 1.36128 ± 0.00037
Wavelength=486.1 nm, x2 = 0.522
  refractive index: 1.35907 ± 0.00035
Wavelength=486.1 nm, x2 = 0.5543
  refractive index: 1.35831 ± 0.00035
Wavelength=486.1 nm, x2 = 0.609
  refractive index: 1.35589 ± 0.00034
Wavelength=486.1 nm, x2 = 0.6529
  refractive index: 1.35437 ± 0.00034
Wavelength=486.1 nm, x2 = 0.7504
  refractive index: 1.35046 ± 0.00033
Wavelength=486.1 nm, x2 = 0.804
  refractive index: 1.34626 ± 0.00033
Wavelength=486.1 nm, x2 = 0.807
  refractive index: 1.34606 ± 0.00033
Wavelength=486.1 nm, x2 = 0.8727
  refractive index: 1.34228 ± 0.00032
Wavelength=486.1 nm, x2 = 0.9233
  refractive index: 1.33421 ± 0.00033
Wavelength=486.1 nm, x2 = 0.9253
  refractive index: 1.33616 ± 0.00033
Wavelength=486.1 nm, x2 = 0.9527
  refractive index: 1.33306 ± 0.00032
Wavelength=486.1 nm, x2 = 0.9773
  refractive index: 1.3296 ± 0.00032
Wavelength=486.1 nm, x2 = 0.989
  refractive index: 1.32836 ± 0.00032
Wavelength=486.1 nm, x2 = 0.9964
  refractive index: 1.32731 ± 0.00032
Wavelength=546.1 nm, x2 = 0
  refractive index: 1.36127 ± 0.00043
Wavelength=546.1 nm, x2 = 0.0423
  refractive index: 1.36116 ± 0.00043
Wavelength=546.1 nm, x2 = 0.0424
  refractive index: 1.36107 ± 0.00043
Wavelength=546.1 nm, x2 = 0.082
  refractive index: 1.36114 ± 0.00042
Wavelength=546.1 nm, x2 = 0.0822
  refractive index: 1.3613 ± 0.00042
Wavelength=546.1 nm, x2 = 0.1171
  refractive index: 1.36113 ± 0.00041
Wavelength=546.1 nm, x2 = 0.1271
  refractive index: 1.36115 ± 0.00041
Wavelength=546.1 nm, x2 = 0.1827
  refractive index: 1.3609 ± 0.0004
Wavelength=546.1 nm, x2 = 0.2162
  refractive index: 1.36071 ± 0.0004
Wavelength=546.1 nm, x2 = 0.251
  refractive index: 1.36037 ± 0.00039
Wavelength=546.1 nm, x2 = 0.3298
  refractive index: 1.36029 ± 0.00038
Wavelength=546.1 nm, x2 = 0.3577
  refractive index: 1.36006 ± 0.00038
Wavelength=546.1 nm, x2 = 0.4497
  refractive index: 1.35815 ± 0.00037
Wavelength=546.1 nm, x2 = 0.4525
  refractive index: 1.35854 ± 0.00037
